Assay results: paper PMC4232510, “Identification of Functionally Important Residues of the Rat P2X4 Receptor by Alanine Scanning Mutagenesis of the Dorsal Fin and Left Flipper Domains” (PLoS ONE, 2014)
Read-outs that look alike come from different tables or passages of the source.

What was measured:
rP2X4R N204A mutant = target: T1, rP2X4R N204A mutant (Rattus norvegicus, UniProt P51577, N204A); assay type: cell-based
T1 construct: expressed in transfected cells; host or cells: HEK293T
Description: To express the recombinant channels, we used human embryonic kidney (HEK) 293T cells (American Type Culture Collection, Rockville, MD, USA) grown in Dulbecco modified Eagle’s medium (Thermo Fisher Scientific, Waltham, MA) supplemented with 10% fetal bovine serum (Sigma-Aldrich, St Louis, MO), 50 U/ml penicillin and 50 µg/ml streptomycin (both Thermo Fisher Scientific, Waltham, MA) in a humidified 5% CO2 and 95% air at 37°C. Cells were cultured in 75 cm^2 plastic culture flasks (NUNC, Rochester, NY) for 36–72 hours until reaching 80–95% confluence. Before the day of transfection, the cells were plated on 35 mm culture dishes (Sarstedt, Newton, NC) and incubated at 37°C for at least 24 h. […] Transfected cells were identified by the fluorescence signal of EGFP using the Olympus IX71 inverted research microscope with fluorescence illuminators (Model IX71; Olympus, Melville, NY). […]
ATP-induced currents were recorded from whole cells clamped to −60 mV using an Axopatch 200B patch-clamp amplifier (Axon Instruments, Union City, CA). […] Potency of ATP was measured based on the activation of naïve (not previously stimulated) receptors using a short (2–5 s) application of various concentrations of ATP. […] One or two responses were recorded from one cell, if not otherwise stated, and responses from different cells were pooled. […]

P2X1R N204A = test system: P2X1R N204A; set-up: method as in PMID 16371009; settings: cited from earlier work
P2X2R N202A = test system: P2X2R N202A; set-up: method as in PMID 10940304; key: n.f.: non-functional mutants; ↑: mutant with significant increased EC50 in comparison to WT (values represent fold increase); ≈: close to WT receptor; D: affected time-constant of the desensitizing current response; settings: cited from earlier work
P2X4R I205A = test system: P2X4R I205A; set-up: method as in PMID 24943126; settings: cited from earlier work
P2X3R E197A = test system: P2X3R E197A; set-up: method as in PMID 15475563; key: n.f.: non-functional mutants; ↑: mutant with significant increased EC50 in comparison to WT (values represent fold increase); ≈: close to WT receptor; D: affected time-constant of the desensitizing current response; settings: cited from earlier work
P2X4R L214A = settings: cited from earlier work
P2X4R D280A = test system: P2X4R D280A; set-up: method as in PMID 17663752, PMID 15632318; settings: cited from earlier work
P2X3R S267A = test system: P2X3R S267A; set-up: method as in PMID 16120774; key: n.f.: non-functional mutants; ↑: mutant with significant increased EC50 in comparison to WT (values represent fold increase); ≈: close to WT receptor; D: affected time-constant of the desensitizing current response; settings: cited from earlier work
P2X4R H286A = test system: P2X4R H286A; set-up: method as in PMID 17663752, PMID 15632318, PMID 12819199, PMID 15246547; settings: cited from earlier work
P2X3R S275A = test system: P2X3R S275A; set-up: method as in PMID 21879712; key: n.f.: non-functional mutants; ↑: mutant with significant increased EC50 in comparison to WT (values represent fold increase); ≈: close to WT receptor; D: affected time-constant of the desensitizing current response; settings: cited from earlier work
P2X1R N290A = test system: P2X1R N290A; set-up: method as in PMID 16371009; settings: cited from earlier work
P2X2R N288A = test system: P2X2R N288A; set-up: method as in PMID 10940304; settings: cited from earlier work

T1 sequence (P51577 whole entry N204A): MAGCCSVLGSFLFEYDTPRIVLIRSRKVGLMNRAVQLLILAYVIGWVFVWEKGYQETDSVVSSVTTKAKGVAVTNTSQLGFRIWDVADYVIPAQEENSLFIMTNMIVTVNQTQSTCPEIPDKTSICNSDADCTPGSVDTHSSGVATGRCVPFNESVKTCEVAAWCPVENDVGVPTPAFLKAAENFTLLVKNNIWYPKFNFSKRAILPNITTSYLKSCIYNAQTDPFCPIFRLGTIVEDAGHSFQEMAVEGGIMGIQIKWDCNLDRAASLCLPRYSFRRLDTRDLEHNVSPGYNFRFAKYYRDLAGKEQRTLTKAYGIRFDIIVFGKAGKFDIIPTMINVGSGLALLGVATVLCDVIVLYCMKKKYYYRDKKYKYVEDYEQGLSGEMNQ

Structure (SMILES): Nc1ncnc2c1ncn2[C@@H]1O[C@H](COP(=O)(O)OP(=O)(O)OP(=O)(O)O)[C@@H](O)[C@H]1O [ATP]
- Imax+IVM (rP2X4R N204A mutant; ATP after 3 µM IVM 4-6 min): 2.5 ± 0.4 nA
- τoff +IVM (rP2X4R N204A mutant; decay after removal of 1 or 3 µM ATP, 3 µM IVM): 5.2 ± 0.6 s
- fold increase of EC50 for ATP in comparison to WT (P2X1R N204A): N204A: ↑3,5x[45]
- change in EC50 for ATP (P2X2R N202A): N202A: n.f.[6]
- fold increase of EC50 for ATP in comparison to WT (P2X4R I205A): I205A: ↑2,5x[49]
- change in desensitization (P2X3R E197A): E197A: D[53]
- fold increase of EC50 for ATP in comparison to WT (P2X4R L214A; ref 41): 8 x
- fold increase of EC50 for ATP in comparison to WT (P2X4R L214A; ref 49): 3 x
- fold increase of EC50 for ATP in comparison to WT (P2X4R D280A): D280A ↑>100x[10], [52]
- change in EC50 for ATP (P2X3R S267A): S267A: ≈[59]
- fold increase of EC50 for ATP in comparison to WT (P2X4R H286A): H286A: ↑2–4x[10], [52], [57], [60]
- change in desensitization (P2X3R S275A): S275A: D[55]
- fold increase of EC50 for ATP in comparison to WT (P2X1R N290A): N290A: ↑>50x[45]
- fold increase of EC50 for ATP in comparison to WT (P2X2R N288A): N288A: ↑>100x[6]
